Some results are limits rather than exact numbers.

For test [1], the target named is T1, Human S1P3 receptor (Homo sapiens, UniProt Q99500).
T1 construct: expressed in transfected cells; host or cells: CHO cells (Geneticin selection)
In words: Suppression of S1P-induced cellular calcium mobilization in human S1P3 receptor-expression CHO cells (Schild plot, Kd). Conditions: Fluo3 calcium mobilization by S1P, Schild plot analysis, read-out: S1P3 dissociation constant Kd. Type of test: cell-based. As for the experimental part:
Suppression Effect of Test Compound Against Cellular Calcium Mobilization of Human S1P3 Receptor-Expression Cell by S1P (Sphingosine 1-Phosphoric Acid)
Human S1P3 receptor-expression CHO cells were subcultured in a Ham's F-12 culture medium containing 10% fetal bovine serum, and 300 μg/mL of Geneticin The human S1P3 receptor-expression CHO cells were subjected to 0.25% trypsinization, then recovered from the dish, and floated in a Ham's F-12 culture medium containing 10% fetal bovine serum, and 300 μg/mL of Geneticin. Then, the human S1P3 receptor-expression CHO cells were seeded into a 96-well black clear bottom plate (BD Falcon Biocoat) at 2.5×10^4/100 μL/well. The human S1P3 receptor-expression CHO cells were then cultivated for […] at 37° C. under 5% CO2 environment. The next day, the wells were washed with a Ham's F-12 culture medium containing 100 μL of 0.1% fatty acid-free bovine serum albumin (BSA). This washing treatment was carried out 3 times. The culture medium was exchanged with a Ham's F-12 culture medium containing 0.1% BSA, and then starved of serum for 6 hours in a CO2 incubator set at 37° C.
The culture medium was thrown away after the 6 hours. Then, 50 μL/well of a Fluo3 loading buffer was added, and the cultures were cultivated for further 1 hour. The Fluo3 loading buffer was prepared as follows. First, equal amounts of Fluo3-AM (Dojindo) and pluronic F-127 (20% DMSO solution, invitrogen) weremixed. Then, the mixture of Fluo3-AM andpluronic F-127 was added into a Hanks-HEPES buffer (Hanks balanced salt solution containing 20 mM HEPES (pH 7.4), 0.1% BSA (fatty acid-free), and 2.5 mM probenecid) to form a Fluo3 loading buffer having a final Fluo3-AM concentration of 4 μM.
After incubating for 1 hour, the wells were washed 3 times with 100 μL of the Hanks-HEPES buffer. 100 μL of the same buffer in which a test compound (0.125 nM, 1.25 nM, 12.5 nM, 125 nM, 1.25 μM) or DMSO had been dissolved were added to the each well, and then incubated for 30 minutes at 37° C. in a microplate spectrophotofluorometer (FLEX Station (Molecular Device Co., Ltd.)). Then, 25 μL of S1P prepared at 5 times the concentration of the final concentration based on serial dilution (final concentration of 0.1 nM, 1 nM, 10 nM, 100 nM, and 1 μM) was added, and the fluorescence based on the Fluo3 due to calcium mobilization was detected and measured at an excitation wavelength of 485 nm and a detection wavelength of 525 nm using an same apparatus. Based on the measurement data, the increase in fluorescence was calculated by subtracting the minimum fluorescence intensity from the maximum fluorescence intensity. The calculated increase in fluorescence was used to perform a curve approximation of the relationship between the S1P concentration and the increase in fluorescence using PRISM 4 software (GraphPad). Based on the results, the EC50 value of the compound-untreated and the EC50 value of the compound-treated at each concentration was calculated. Based on these values, Schild plot analysis was carried out in order to determine the dissociation constant Kd. In Table 1, 1 nmol/L>Kd value≧0.1 nmol/L is indicated as “+”, 0.1 nmol/L>Kd value≧0.01 nmol/L is indicated as “++”, and 0.01 nmol/L>Kd value is indicated as “+++”.

Test [2] concerns Cecal ligation and puncture (CLP) sepsis. In words: Cecal ligation and puncture sepsis model, survival. Type of test: in vivo, Wistar rats. The settings on record: CLP rats. As for the experimental part: Cecal Ligation and Puncture Sepsis Model
This model is widely used as a model for polymicrobial abdominal sepsis caused by leakage of intestinal bacteria. The experiment was carried out with reference to the method described in Non-Patent Literature 9 (D. Rittirsch et al., Nature Protocols, 4, 31 (2009)).
Preparation of Cecalligation and Puncture (CLP) Sepsis Mice
Wistar rats (Charles River Laboratories, Japan Inc., male 8 W) were used. The abdominal portion of the rats was cut open under isoflurane anesthesia, and the appendix was exteriorized. The appendix was ligated with sterilized silk thread, and 10 holes were opened in the tip portion of the appendix using an 18 G syringe needle. After the treatment, the appendix was returned to the body, and the wound was sutured. Further, physiological saline was subcutaneously administered at a dose of 30 mL/kg. The rats were then returned to their cages, and observed for 7 days to determine the survival rate.
Test Compound Administration Method
The test compound was continuously administered via a cannula stuck in the femoral vein at a dose of 0.1 mg/kg/hr. Administration of the test compound was started 1 hour after the CLP procedure was finished.

Test [3] has as its target T2, S1P1 receptor (Homo sapiens, UniProt P21453). In words: Antagonistic action on the S1P1 receptor by the method of Experiment Example 1 (Kd). In kind it is cell-based. Also noted: expressed in transfected cells.
For test [4], the target named is T2, S1P1 receptor. In words: Intracellular calcium mobilization derivative test (agonist action) in human S1P1 receptor-expression CHO cells. In kind it is cell-based. Set-up: expressed in transfected cells; host or cells: CHO cells (Geneticin selection). Conditions: agonist mode, up to 10 μM. As for the experimental part:
Intracellular Calcium Mobilization Derivative Test of Test Compound Against Human S1P1 Receptor-Expression Cell
Human S1P1 receptor-expression CHO cells were subcultured in a Ham's F-12 culture medium containing 10% fetal bovine serum, and 300 μg/mL of Geneticin. The human S1P1 receptor-expression CHO cells were subjected to 0.25% trypsinization, then recovered from the dish, and floated in a Ham's F-12 culture medium containing 10% fetal bovine serum, and 300 μg/mL of Geneticin. Then, the human S1P1 receptor-expression CHO cells were seeded into a 96-well black clear bottom plate (BD Falcon Biocoat) at 2.5×10^4/100 μL/well. […]
After incubating for 1 hour, the wells were washed 3 times with 100 μL of the Hanks-HEPES buffer. […] Then, 25 μL of the same buffer dissolved with DMSO, or S1P prepared at 5 times the concentration of the final concentration based on serial dilution or the test compound (final concentration of 0.1 nM, 1 nM, 10 nM, 100 nM, 1 μM, and 10 μM) was added, and the fluorescence based on the Fluo3 due to calcium mobilization was detected and measured at an excitation wavelength of 485 nm and a detection wavelength of 525 nm using the same apparatus. Based on the measurement data, the increase in fluorescence was calculated by subtracting the minimum fluorescence intensity from the maximum fluorescence intensity. […]

T2 sequence (P21453 whole entry): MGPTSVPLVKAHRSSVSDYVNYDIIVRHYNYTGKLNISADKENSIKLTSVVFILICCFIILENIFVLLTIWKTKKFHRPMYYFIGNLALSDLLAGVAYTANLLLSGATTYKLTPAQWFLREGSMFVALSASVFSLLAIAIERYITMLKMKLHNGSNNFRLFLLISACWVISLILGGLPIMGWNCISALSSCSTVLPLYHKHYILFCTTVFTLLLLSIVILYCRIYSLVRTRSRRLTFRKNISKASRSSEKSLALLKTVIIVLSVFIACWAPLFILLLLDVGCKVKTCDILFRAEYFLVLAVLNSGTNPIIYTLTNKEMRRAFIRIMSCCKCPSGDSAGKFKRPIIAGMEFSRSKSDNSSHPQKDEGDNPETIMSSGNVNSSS
T1 sequence (Q99500 whole entry): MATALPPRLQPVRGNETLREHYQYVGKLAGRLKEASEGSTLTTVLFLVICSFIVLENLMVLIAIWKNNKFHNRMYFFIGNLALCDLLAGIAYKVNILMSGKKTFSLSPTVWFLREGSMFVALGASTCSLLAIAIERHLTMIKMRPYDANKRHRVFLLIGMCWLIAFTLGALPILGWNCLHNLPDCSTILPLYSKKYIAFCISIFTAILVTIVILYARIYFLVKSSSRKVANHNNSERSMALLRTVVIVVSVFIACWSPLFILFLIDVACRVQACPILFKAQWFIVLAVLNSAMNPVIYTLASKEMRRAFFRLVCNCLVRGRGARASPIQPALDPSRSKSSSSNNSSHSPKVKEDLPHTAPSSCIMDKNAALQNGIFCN

`CCC[C@](N)(CCc1ccc(Sc2cc(C(C)=O)ccc2O)cc1Cl)COP(=O)(O)O` [compound 36, (S)-4-[4-(5-acetyl-2-hydroxyphenylthio)-2-chlorophenyl]-2-amin o-2-propylbutylphosphoric acid monoester]: the Kd in test [1] was 0.1 to 1 nM.
`N[C@@](CCCO)(CCc1ccc(Sc2cc(C3CC3)ccc2O)cc1Cl)COP(=O)(O)O` [compound 19]: the dissociation constant (Kd) in test [1] fell in the range of 0.1 to 1 nM.
As to `CCC[C@](N)(CCc1ccc(Sc2cc(OCC)ccc2O)cc1Cl)COP(=O)(O)O` [Example 2, (S)-2-amino-4-{2-chloro-4-(5-ethoxy-2-hydroxyphenylthio)phenyl}-2-propylbutylphosphoric acid monoester], the results for the Kd in test [1] and in test [3] were less than 0.01 nM and 1.6 nM, respectively. In addition, the “survival lengthening action, Log-rank test p” value in test [2] (0.1 mg/kg/hr continuous via femoral vein from 1 hour after CLP, vs medium administration group) is recorded as less than 0.01. In addition, the “survival rate, test subjects alive after 3 days” value in test [2] (0.1 mg/kg/hr continuous via femoral vein, after 3 days) is on record as 25%. In addition, the “survival rate, test subjects alive after 7 days” value in test [2] (0.1 mg/kg/hr continuous via femoral vein, after 7 days) amounted to 12.5%. Also, the EC50 in test [4] was more than 10 µM.
`C=CC[C@](N)(CCc1ccc(Sc2cc(OCC)ccc2O)cc1Cl)COP(=O)(O)O` [Example 1, (R)-2-allyl-2-amino-4-{2-chloro-4-(5-ethoxy-2-hydroxyphenylthio)phenyl}butylphosphoric acid monoester]: the figures for the Kd in test [1] and in test [3] were less than 0.01 nM and 2.66 nM, respectively. Moreover, the EC50 in test [4] is more than 10 µM.
With `C=CC[C@](N)(CCc1ccc(Sc2cc(C#N)ccc2O)cc1Cl)COP(=O)(O)O` [compound 28, (R)-2-allyl-2-amino-4-{2-chloro-4-(5-cyano-2-hydroxyphenylthio)phenyl}butylphosphoric acid monoester], in test [1], the equilibrium dissociation constant (Kd) lay within 0.1 to 1 nM.
For the molecule `CCC[C@](N)(CCc1ccc(Sc2cc(C#N)ccc2O)cc1Cl)COP(=O)(O)O` [compound 35, (S)-2-amino-4-[2-chloro-4-(5-cyano-2-hydroxyphenylthio)Phenyl]-2-propylbutylphosphoric acid monoester], in test [1], the equilibrium dissociation constant (Kd) was in the range of 0.1 to 1 nM.

The values are drawn from patent US8993543B2, “Diphenyl sulfide derivative and pharmaceutical product which contains same as active ingredient” (Kyorin Pharmaceutical Co., Ltd., priority 2010, dated 2015).
